This experiment deals with T1, CHEK1 (CHK1) (Homo sapiens, UniProt O14757).
T1 construct: purchased Thermo Fisher Scientific (Life Technologies) SelectScreen
In words: SelectScreen Z'LYTE. Format: biochemical. An outline of the steps:
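Compound tested in SelectScreen activity assays, Z'LYTE for CSF1R, CDK1/cyclin B and MAP2K6 and Adapta for CAMK1. ATP for CAMK1 was listed as 10, and Km app was used for CSF1R. Results are expressed in percent.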

T1 sequence (O14757 whole entry): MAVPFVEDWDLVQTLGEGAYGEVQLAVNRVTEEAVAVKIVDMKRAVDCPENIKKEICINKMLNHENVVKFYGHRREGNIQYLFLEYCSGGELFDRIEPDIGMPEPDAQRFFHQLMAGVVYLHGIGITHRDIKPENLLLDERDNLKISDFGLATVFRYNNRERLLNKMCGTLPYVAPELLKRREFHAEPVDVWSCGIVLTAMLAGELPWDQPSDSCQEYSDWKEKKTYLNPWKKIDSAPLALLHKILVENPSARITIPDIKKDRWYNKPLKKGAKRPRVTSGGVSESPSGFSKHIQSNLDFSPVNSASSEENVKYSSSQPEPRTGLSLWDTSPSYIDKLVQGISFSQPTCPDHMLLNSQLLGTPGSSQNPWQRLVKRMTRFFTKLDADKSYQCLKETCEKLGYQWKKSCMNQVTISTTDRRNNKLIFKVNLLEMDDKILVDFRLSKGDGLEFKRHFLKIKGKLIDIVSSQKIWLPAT

`CN(C(=O)CN1CCOCC1)c1ccc2sc3c(-c4cccc5c(=O)cc(N6CC7CCC(C6)O7)oc45)cccc3c2c1` [NU5455] displayed an inhibition at 1 µM of 9.3%.
